pIC50: −log10 of the molar value.
Tests used:
[1] = target: T1, DNA repair protein RAD51 homolog 1 (Homo sapiens, UniProt Q06609); test: Inhibition of RAD51 (unknown origin) using labeled 100-ss DNA as substrate assessed as reduction in DNA D-loop formation by [gamma-32P]ATP based scintillation counter method
T1 sequence (Q06609 whole entry): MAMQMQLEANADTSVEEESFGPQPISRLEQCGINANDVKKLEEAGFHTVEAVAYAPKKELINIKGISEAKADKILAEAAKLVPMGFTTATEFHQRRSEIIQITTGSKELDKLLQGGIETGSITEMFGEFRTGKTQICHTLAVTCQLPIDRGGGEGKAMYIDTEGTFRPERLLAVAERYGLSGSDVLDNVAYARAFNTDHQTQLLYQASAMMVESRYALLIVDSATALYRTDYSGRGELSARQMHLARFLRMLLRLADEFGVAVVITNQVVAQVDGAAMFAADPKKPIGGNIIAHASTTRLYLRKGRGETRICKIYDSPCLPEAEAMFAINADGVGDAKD

[2] = target: T1, DNA repair protein RAD51 homolog 1; test: Inhibition of wild type human RAD51 expressed in Escherichia coli BL21-DE3 using 100 bp ssDNA probe as substrate assessed as prevention of D-loop formation preincubated for 5 mins followed by plasmid DNA addition and measured after 15 mins by agarose gel electrophoresis method
[3] = target: T1, DNA repair protein RAD51 homolog 1; test: Inhibition of RAD51 (unknown origin) assessed as reduction in novel 58/33-dsDNA formation incubated for 1 hr by electrophoresis based DNA strand exchange assay
[4] = test system: DU-145; test: Cytotoxicity against human DU-145 cells overexpressing RAD51 assessed as cell viability at 50 uM incubated for 72 hrs by MTT assay relative to control; format: functional; settings: read-out: Activity
[5] = test system: DU-145; test: Cytotoxicity against human DU-145 cells overexpressing RAD51 assessed as cell viability at 10 uM incubated for 72 hrs by MTT assay relative to control; format: functional; settings: read-out: Activity
[6] = test system: DU-145; test: Cytotoxicity against human DU-145 cells overexpressing RAD51 assessed as cell viability at 1 uM incubated for 72 hrs by MTT assay relative to control; format: functional; settings: read-out: Activity
[7] = target: T1, DNA repair protein RAD51 homolog 1; test: Inhibition of RAD51 (unknown origin) mediated homologous recombination

pIC50 [1]	pIC50 [3]	Compound	viability at 50 µM [4] [%]	viability at 10 µM [5] [%]	viability at 1 µM [6] [%]	other results
< 4.30	–	O=S(=O)(Nc1ccc(/C=C/c2ccc(NS(=O)(=O)c3ccccc3)cc2)cc1)c1ccccc1	–	–	–	–
–	< 4.30	CCOC(=O)Nc1ccc(/C=C/c2ccc(NC(=O)OCC)cc2S(=O)(=O)O)c(S(=O)(=O)O)c1	–	–	–	–
< 4.30	–	O=[N+]([O-])c1ccc(S(=O)(=O)Nc2ccc(/C=C/c3ccc(NS(=O)(=O)c4ccc([N+](=O)[O-])cc4)cc3S(=O)(=O)O)c(S(=O)(=O)O)c2)cc1	–	–	–	–
–	< 4.30	CC(=O)Nc1ccc(/C=C/c2ccc(NC(C)=O)cc2S(=O)(=O)O)c(S(=O)(=O)O)c1	–	–	–	–
5.31	5.89	N#Cc1ccc(/C=C/c2ccc(C#N)cc2S(=O)(=O)O)c(S(=O)(=O)O)c1	100	94	99	–
4.52	–	O=C(Nc1ccc(/C=C/c2ccc(NC(=O)Oc3ccccc3)cc2)cc1)Oc1ccccc1	–	–	–	–
< 4.30	–	COS(=O)(=O)c1cc(NC(=O)Oc2ccccc2)ccc1/C=C/c1ccc(NC(=O)Oc2ccccc2)cc1S(=O)(=O)OC	–	–	–	–
5.19	5.52	COc1ccc(C(=O)Nc2ccc(/C=C/c3ccc(NC(=O)c4ccc(OC)cc4)cc3S(=O)(=O)O)c(S(=O)(=O)O)c2)cc1	100	–	–	–
–	–	O=C1C(Cl)=C(N2CCOCC2)C(=O)N1c1ccc(Cl)c(Cl)c1	–	–	–	pIC50 [7]: 4.70
–	< 4.30	O=C(Nc1ccc(/C=C/c2ccc(NC(=O)c3ccccc3)cc2S(=O)(=O)O)c(S(=O)(=O)O)c1)c1ccccc1	100	100	100	–
–	–	O=c1c2ccccc2nc(/C=C/c2cccnc2)n1Cc1ccccc1	9	79	95	–
–	–	Cc1ccc(S(=O)(=O)Nc2ccc(/C=C/c3ccc(NS(=O)(=O)c4ccc(C)cc4)cc3S(=O)(=O)O)c(S(=O)(=O)O)c2)cc1	100	100	100	–
–	< 4.30	CCC(=O)Nc1ccc(/C=C/c2ccc(NC(=O)CC)cc2S(=O)(=O)O)c(S(=O)(=O)O)c1	–	–	–	–
< 4.30	–	CC(C)COC(=O)Nc1ccc(/C=C/c2ccc(NC(=O)OCC(C)C)cc2S(=O)(=O)O)c(S(=O)(=O)O)c1	–	–	–	–
4.67	5.00	[N-]=[N+]=Nc1ccc(/C=C/c2ccc(N=[N+]=[N-])cc2S(=O)(=O)O)c(S(=O)(=O)O)c1	93	94	87	pIC50 [2]: 4.35
4.70	–	N#Cc1ccc(/C=C/c2ccc([N+](=O)[O-])cc2S(=O)(=O)O)c(S(=O)(=O)O)c1	88	85	90	–
4.52	–	O=C(Nc1ccc(CCc2ccc(NC(=O)Oc3ccccc3)cc2S(=O)(=O)O)c(S(=O)(=O)O)c1)Oc1ccccc1	–	–	–	–
< 4.30	–	N#Cc1ccc(CCc2ccc(C#N)cc2S(=O)(=O)O)c(S(=O)(=O)O)c1	–	–	–	–

Compound	pIC50 [1]	pIC50 [3]	viability at 50 µM [4] [%]	viability at 10 µM [5] [%]	viability at 1 µM [6] [%]	other results
CC(=O)Nc1ccc(/C=C/c2ccc(N=C=S)cc2S(=O)(=O)O)c(S(=O)(=O)O)c1	4.54	–	–	–	–	pIC50 [2]: 4.54
O=S(=O)(O)c1cc(I)ccc1/C=C/c1ccc(I)cc1S(=O)(=O)O	–	4.76	84	89	91	–
O=S(=O)(O)c1cc(N=C=S)ccc1/C=C/c1ccc(N=C=S)cc1S(=O)(=O)O	6.05	6.12	83	87	90	pIC50 [2]: 6.05
[N-]=[N+]=Nc1ccc(/C=C/c2ccc(N=[N+]=[N-])cc2)cc1	< 4.30	–	–	–	–	–
O=[N+]([O-])c1ccc(/C=C/c2ccc([N+](=O)[O-])cc2S(=O)(=O)O)c(S(=O)(=O)O)c1	< 4.30	–	–	–	–	–
O=C(Nc1ccc(/C=C/c2ccc(NC(=O)Oc3ccccc3)cc2S(=O)(=O)O)c(S(=O)(=O)O)c1)Oc1ccccc1	5.64	5.42	87	100	100	–

From ChEMBL document CHEMBL5257068, “Synthesis and biological evaluation of DIDS analogues as efficient inhibitors of RAD51 involved in homologous recombination” (Bioorg Med Chem Lett, 2023)
